Assays:
ζ-globin gene (hbae5) [1] = assay: Whole-mount mRNA in situ hybridization (WISH) of ζ-globin gene (hbae5) in zebrafish embryos; format: in vivo; conditions: 5 μmol/L, 24 hours
Procedure: (§1) K562 cells were cultured in RPMI 1640 medium supplemented with 10% (v/v) fetal bovine serum; Hemin was dissolved into 0.2 mol/L NaOH solution, and the working concentration for treating K562 cells is 20 μmol/L; Triac, T3 and T4 were dissolved into dimethyl sulfoxide (DMSO), and the working concentration for treating K562 cells and zebrafish embryos is 20 μmol/L and 5 μmol/L, respectively.
After treatment with Triac, T3 and T4 for 24 hours, respectively, zebrafish embryos were fixed by 4% paraformaldehyde. The expression of ζ-globin gene (hbae5) was detected by Whole-mount mRNA in situ hybridization (WISH).

ζ-globin gene (hbae5) [2] = assay: qPCR of ζ-globin gene (hbae5) expression in zebrafish embryos; format: in vivo; conditions: 5 μmol/L, 24 hours
Procedure: as §1
After treatment with Triac, T3 and T4 for 24 hours, respectively, zebrafish embryos were collected. TRIzol reagent (Invitrogen) was used to extract total RNA, then a reverse transcription kit (ReverTra Ace, TOYOBO) was used to synthesize cDNA, and finally, a SYBRGreen Realtime PCR Master Mix (TOYOBO) reagent was used to perform quantitative PCR.
(§2) The quantitative PCR reaction system is:
(§3) The quantitative PCR reaction conditions are: • hot start: 95° C., 10 minutes; • denaturation: 95° C., 10 seconds; and • annealing/extension: 60° C., 30 seconds. • 40 circles. Analysis of a […]

ζ-globin gene (HBZ) = assay: qPCR of ζ-globin gene (HBZ) expression in hemin-treated K562 cells; format: cell-based, human; conditions: hemin plus Triac 20 μmol/L, 72 hours
Procedure: as §1
K562 cells were treated with hemin or hemin plus Triac for 72 hours, respectively, centrifugation was performed at 2000 rpm for 5 minutes to collect cells, a TRIzol reagent (Invitrogen) was used to extract total RNA, then a reverse transcription kit (ReverTra Ace, TOYOBO) was used to synthesize cDNA, and finally, a SYBR Green Realtime PCR Master Mix (TOYOBO) reagent was used to perform quantitative PCR.
as §2, §3

SMILES | expression of ζ-globin gene (hbae5) by WISH (ζ-globin gene (hbae5) [1]) | expression of ζ-globin gene (hbae5) up-regulated (qPCR) (ζ-globin gene (hbae5) [2]) | expression of ζ-globin gene (HBZ) up-regulated (qPCR) (ζ-globin gene (HBZ))
N[C@@H](Cc1cc(I)c(Oc2ccc(O)c(I)c2)c(I)c1)C(=O)O [T3, 3,3′,5-Triiodo-L-thyronine] | significantly induce the expression | 31 folds | –
N[C@@H](Cc1cc(I)c(Oc2cc(I)c(O)c(I)c2)c(I)c1)C(=O)O [T4, 3,3′,5,5′-tetraiodothyronine] | significantly induce the expression | 41 folds | –
O=C(O)Cc1cc(I)c(Oc2ccc(O)c(I)c2)c(I)c1 [Triac, 2-[4-(4-Hydroxy-3-iodophenoxy)-3,5-diiodophenyl] acetic acid] | significantly induce the expression | 76 folds | 50.9 folds

Reference: patent publication US12569460B2, “Application of thyroid hormones and thyroid hormone analogues to preparation of drugs for treating sickle-cell disease” (RUIJIN HOSPITAL, SHANGHAI JIAO TONG UNIVERSITY SCHOOL OF …, priority 2020, dated 2026)
